Some results are limits rather than exact numbers.

Assay [1] deals with anti-αGal Ig. Description: Removal of anti-αGal Ig from serum by αGal epitope on resin (Sepharose), measured by FACS. In kind it is binding, rhesus monkey. The following applies: epitope on resin (coupled to Sepharose). How it is done: (§1) Antibodies. Blood was drawn from healthy normal volunteers. Plasma was separated by centrifugation and allowed to clot. Fibrin was removed and plasma was used immediately or stored in aliquots at −70° C. Rhesus monkey serum (California Regional Primate Research Center, Davis, Calif.) was obtained from blood drawn into vacutainer tubes and allowed to clot. After serum was separated by centrifugation, it was pooled, aliquoted and stored at −20° C. or −70° C. In some experiments, sera was heat-inactivated at 56° C. for 30 minutes to destroy complement hemolytic activity. Antibodies to the αGal epitope were affinity purified on an αGal-Sepharose column, which was prepared by coupling αGal-SH to maleimide-Sepharose (Pierce) through Michael addition chemistry at 10 mg/mL resin. Up to 20 mL pooled NHS […] was applied to a 2 mL volume of packed αGal-Sepharose. After the flow through was collected, the column was washed with 10-20 column volumes or until A280 reached baseline values and eluted with 0.1 M triethanolamine, pH 11.5 into tubes containing 1 M Tris, pH 8.0. The column was immediately washed with 10-20 volumes of phosphate-buffered saline (PBS). Fractions were assessed for protein concentration by Bradford assay. Peak fractions were pooled and dialyzed against PBS. […]
(In general: Flow cytometry measures light scatter and fluorescence of single cells or particles in a stream.)

The test system of assay [2] is anti-αGal Ig. Described as above. The following applies: epitope on resin (coupled to Sepharose). In kind it is binding, human. On the procedure: as §1

Turning to `OC[C@H]1O[C@H](O[C@H]2[C@@H](O)[C@@H](CO)O[C@@H](OCCOCCOCCS)[C@@H]2O)[C@H](O)[C@@H](O)[C@H]1O` [αGal epitope, 2-[2-(2-thioethoxy)ethoxy]ethyl 3-O-(α-D-galactopyranosyl)-β-D-galactopyranoside], in assay [1], the “removal of anti-αGal Ig from normal rhesus monkey serum” value is listed as over 95%. The “removal of anti-αGal Ig from human serum” value in assay [2] is on record as over 95%.

For the origin of these results see patent US20010010818A1, “Methods and formulations for reducing circulating antibodies” (priority 1998, published 2001).
